Test results as given in ChEMBL document CHEMBL1799962, “Indolin-2-one p38α inhibitors I: design, profiling and crystallographic binding mode” (Bioorg Med Chem Lett, 2011).
≈ marks a conversion by molar mass, not a printed value.

Experiments:
[1] = Volume of distribution at steady state in rat at 1 mg/kg, iv; type: ADME, organism-based; set-up: dose 1 mg/kg, route intravenous; conditions: in vivo, read-out: Vdss
[2] = Apparent permeability from basolateral to apical side in human Caco2 cells at 12.5 uM; type: ADME, cell-based; conditions: Caco-2
[3] = Cmax in rat at 10 mg/kg, po; type: ADME, organism-based; set-up: dose 10 mg/kg, route oral; conditions: in vivo
[4] = Thermodynamic solubility of the compound in aqueous buffer at pH 7.4 at 37 degC by HPLC-UV analysis; type: physicochemical; conditions: read-out: Therm_solubility
[5] = Terminal half life in rat at 1 mg/kg, iv; type: ADME, organism-based; set-up: dose 1 mg/kg, route intravenous; conditions: in vivo, read-out: beta t1/2 (converted)
[6] = Oral bioavailability in rat at 10 mg/kg; type: ADME, organism-based; conditions: in vivo
[7] = Cmax in rat at 1 mg/kg, iv; type: ADME, organism-based; set-up: dose 1 mg/kg, route intravenous; conditions: in vivo
[8] = Apparent permeability from apical to basolateral side in human Caco2 cells at 12.5 uM; type: ADME, cell-based; conditions: Caco-2
[9] = AUC (0 to infinity) in rat at 1 mg/kg, iv; type: ADME, organism-based; set-up: time infinity, dose 1 mg/kg, route intravenous; conditions: plasma
[10] = Clearance in rat at 1 mg/kg, iv; type: ADME, organism-based; set-up: dose 1 mg/kg, route intravenous; conditions: in vivo
[11] = Primary phase half life in rat at 1 mg/kg, iv; type: ADME, organism-based; set-up: dose 1 mg/kg, route intravenous; conditions: in vivo, read-out: alphat1/2

With `Cc1ccc(C(=O)NC2CC2)cc1-c1ccc2c(c1)NC(=O)C21CCCC1` the Vd [1] was 0.8 L/kg, the Papp B→A at 12.5 µM [2] was 10 ×10⁻⁶ cm/s and the Cmax [3] was 367 ng/mL. The solubility thermodynamic [4] was 3 µg/mL (≈ 8.32 µM), the half-life [5] was 5.3 h and the bioavailability [6] was 10%. It also gave a Cmax [7] of 2000 ng/mL, a Papp A→B at 12.5 µM [8] of 18 ×10⁻⁶ cm/s and an AUC(0-inf) [9] of 2530 ng·h/mL. It also gave a clearance [10] of 6.6 mL/min/kg and a half-life [11] of less than 1 h.
